Laboratory results taken from patent US8106236B2, “Triaryl compounds and derivates thereof” (Ortho-McNeil Pharmaceutical, Inc., priority 2006, dated 2012).

Assays:
[1] = system: Aβ42; assay: In vivo Aβ42 lowering, mouse; details: oral dose 30 mpk at 4 hr time point, read-out: Mouse Efficacy % Lowering Aβ 42
From the text: (§1) To determine whether acute administration of an Aβ42 lowering agent would reduce Aβ42 levels in vivo, non-transgenic rodents, e.g. mice or rats can be used. Alternatively, two to three month old Tg2576 mice expressing APP695 containing the “Swedish” variant can be used or a transgenic mouse model developed by Dr. Fred Van Leuven (K.U.Leuven, Belgium) and co-workers, with neuron-specific expression of a clinical mutant of the human amyloid precursor protein [V717I] (Moechars et al., 1999 J. Biol. Chem. 274, 6483). […] Animals of this age have high levels of Aβ in the brain but no detectable Aβ deposition. Mice treated with the Aβ42 lowering agent will be examined and compared to those untreated or treated with vehicle and brain levels of soluble Aβ42 and total Aβ would be quantitated by standard techniques, for example, using ELISA. Treatment periods may vary from hours to days and will be adjusted based on the results of the Aβ42 lowering once a time course of onset of effect can be established.
(§2) A typical protocol for measuring Aβ42 lowering in vivo is shown but it is only one of many variations that could be used to optimize the levels of detectable Aβ. For example, aliquots of compounds can be dissolved in DMSO (volume equal to 1/10th of the final formulation volume), vortexed and further diluted (1:10) with a 10% (w/v) hydroxypropyl β cyclodextrin (HBC, Aldrich, Ref N° 33,260-7) solution in PBS, where after they are sonicated for 20 seconds.
(§3) Aβ42 lowering agents may be administered as a single oral dose given three to four hours before sacrifice and analysis or alternatively could be given over a course of days and the animals sacrificed three to four hours after the final dose is given.
(§4) Blood is collected at sacrifice. The blood collection is performed via a heart puncture during anesthesia with a mixture of Ketalar (Ketamin), Rompun (Xylazin 2%) and Atropin (2:1:1) and collected in EDTA treated collection tubes. Blood is centrifuged at 4000 g for 5 minutes at 4° C. and the plasma recovered for analysis.
(§5) The mice are anaesthetized with a mixture of Ketalar (Ketamin), Rompun (Xylazin 2%) and Atropin (2:1:1) and flushed trans-cardially with physiological serum at 4° C.
(§6) The brain is removed from the cranium and hindbrain and forebrain are separated with a cut in the coronal/frontal plane. The cerebellum is removed. The forebrain is divided evenly into left and right hemisphere by using a midline sagital cut.
(§7) One hemisphere is immediately immersed in liquid nitrogen and stored at −70° C. until homogenization for biochemical assays.
(§8) Brains are homogenized using a Potter, a glass tube (detergent free, 2 cm^3) and a mechanical homogenizer (650 rpm). A volume of 6.5×½ brain weight of freshly prepared 20 mM Tris/HCl buffer (pH 8.5) with Proteinase Inhibitors (1 tablet per 50 ml Tris/HCl buffer, Complete™, Roche, Mannheim, Germany) is used as homogenization buffer.
(§9) Samples are transferred from −70° C. into a sample holder with liquid nitrogen and each individual sample is pre-warmed by incubation on the bench for a few seconds prior to homogenization. The homogenates are collected in Beckman centrifuge tubes TLX and collected on ice prior to centrifugation. Between two samples, the Potter and the glass tube are rinsed carefully with distilled water without detergents and dried with absorption paper.
(§10) Samples are centrifuged in a pre-cooled ultracentrifuge (Beckman, Mannheim, Germany) for 1 hour and 20 minutes at 48000 rpm (135.000×g) at 4° C. The supernatant (soluble fraction containing secreted APP and amyloid peptides) is separated from the pellet (membrane fraction containing membrane-bound APP-fragments and plaque-associated amyloid peptides in case of aged mice).
(§11) Small reversed phase columns (C18-Sep-Pack Vac 3 cc cartridges, Waters, Mass., MA) are mounted on a vacuum system and washed with 80% acetonitrile in 0.1% Trifluoroacetic acid (A-TFA) followed with 0.1% TFA twice. […]

[2] = system: Aβ42; assay: In vivo Aβ42 lowering, rat; details: oral dose 30 mpk at 4 hr time point
From the text: as §1, §2, §3, §4, §5, §6, §7, §8, §9, §10, §11

Compound: CC(C)CC(C(=O)O)c1cc(-c2ccc(C(F)(F)F)cc2)cc(-c2ccc(C(F)(F)F)cc2)c1 (stereo not shown) [Compound 5, 2-(4,4″-Bis-trifluoromethyl-[1,1′;3′,1″]terphenyl-5′-yl)-4-methyl-pentanoic acid]
- inhibition in vivo at 30 mg/kg [1]: 48%
- Rat Efficacy % Lowering Aβ 42 [2]: 29%

Compound: CC(C)C[C@H](C(=O)O)c1cc(-c2ccc(C(F)(F)F)cc2)cc(-c2ccc(C(F)(F)F)cc2)c1 [Compound 40, (S)-2-(4,4″-Bis-trifluoromethyl-[1,1′;3′,1″]terphenyl-5′-yl)-4-methyl-pentanoic acid]
- inhibition in vivo at 30 mg/kg [1]: 40%
- Rat Efficacy % Lowering Aβ 42 [2]: 40%

Compound: CC(C)CC(C(=O)O)c1cc(-c2ccc(C(F)(F)F)cc2)cc(-c2cc(F)c(F)c(F)c2)c1 (stereo not shown) [Compound 14, 4-Methyl-2-(3,4,5-trifluoro-4″-trifluoromethyl-[1,1′;3′,1″]terphenyl-5′-yl)-pentanoic acid]
- inhibition in vivo at 30 mg/kg [1]: 58%
- Rat Efficacy % Lowering Aβ 42 [2]: 20%

Compound: CC(C)C[C@H](C(=O)O)c1cc(-c2ccc(C(F)(F)F)cc2)cc(-c2ccc(Cl)c(F)c2)c1 [Compound 50, (S)-2-(4-Chloro-3-fluoro-4″-trifluoromethyl-[1,1′;3′,1″]terphenyl-5′-yl)-4-methyl-pentanoic acid]
- inhibition in vivo at 30 mg/kg [1]: 48%
- Rat Efficacy % Lowering Aβ 42 [2]: 28%

Compound: CC(C)C[C@@H](C(=O)O)c1cc(-c2ccc(C(F)(F)F)cc2)cc(-c2ccc(C(F)(F)F)cc2)c1 [Compound 39, (R)-2-(4,4″-Bis-trifluoromethyl-[1,1′;3′,1″]terphenyl-5′-yl)-4-methyl-pentanoic acid]
- inhibition in vivo at 30 mg/kg [1]: 50%
- Rat Efficacy % Lowering Aβ 42 [2]: 27%
